Source: PubChem BioAssay (NCI)
Values joined by “and” are separate entries in the source; they are usually repeats but may differ in a detail not shown here. Equal values may be shown once.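 The compound was tested at five concentrations on cells cultured in 96-well plates, with a 48-hour exposure period. At the GI50, growth is halved. TGI: concentration producing complete growth inhibition.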

What was measured:
Test in all cases: NCI tumour cell line growth inhibition, 48 h
[1] = test system: NCI-H23 lung
[2] = test system: NCI-H460 lung
[3] = test system: NCI-H522 lung
[4] = test system: NCI/ADR-RES ovarian
[5] = test system: OVCAR-3 ovarian
[6] = test system: OVCAR-4 ovarian
[7] = test system: OVCAR-5 ovarian
[8] = test system: OVCAR-8 ovarian
[9] = test system: PC-3 prostate
[10] = test system: RPMI-8226 leukemia
[11] = test system: RXF 393 renal
[12] = test system: SF-268 CNS
[13] = test system: SF-295 CNS
[14] = test system: SF-539 CNS
[15] = test system: SK-MEL-2 melanoma
[16] = test system: SK-MEL-28 melanoma
[17] = test system: SK-MEL-5 melanoma
[18] = test system: SK-OV-3 ovarian
[19] = test system: SN12C renal
[20] = test system: SNB-19 CNS
[21] = test system: SNB-75 CNS
[22] = test system: SR leukemia
[23] = test system: SW-620 colon
[24] = test system: T-47D breast
[25] = test system: TK-10 renal
[26] = test system: U251 CNS
[27] = test system: UACC-257 melanoma
[28] = test system: UACC-62 melanoma
[29] = test system: UO-31 renal

Structure (SMILES): NC1(c2ccc(-c3nc4ccn5c(=O)[nH]nc5c4cc3-c3ccccc3)cc2)CCC1
- GI50 [1]: 13.1 µM and > 10 µM and 13.2 µM
- TGI [1]: 28.3 µM and > 10 µM and 27.2 µM
- GI50 [2]: 0.231 µM and 0.679 µM and 1.19 µM
- TGI [2]: 17.7 µM and > 10 µM and 18.5 µM
- GI50 [3]: 7.95 µM and > 10 µM and 11.6 µM
- TGI [3]: 23.2 µM and > 10 µM and 26 µM
- GI50 [4]: 11.9 µM and > 10 µM and 12.8 µM
- TGI [4]: 26.2 µM and > 10 µM and 26.9 µM
- GI50 [5]: 0.607 µM and 0.841 µM and 0.814 µM
- TGI [5]: 18.9 µM and > 10 µM and 18.5 µM
- GI50 [6]: 5.57 µM and > 10 µM and 14.7 µM
- TGI [6]: 14 µM and > 10 µM and 30.5 µM
- GI50 [7]: 11.6 µM and > 10 µM and 12.6 µM
- TGI [7]: 24.7 µM and > 10 µM and 25.7 µM
- GI50 [8]: 12.6 µM and > 10 µM and 14.9 µM
- TGI [8]: 28.2 µM and > 10 µM and 30.8 µM
- GI50 [9]: 0.0523 µM and 0.135 µM and 0.141 µM
- TGI [9]: 17 µM and > 10 µM and 17.3 µM
- GI50 [10]: 7 µM and > 8.21 µM and 6.27 µM
- TGI [10]: 23.2 µM and > 10 µM and 28.4 µM
- GI50 [11]: 0.0971 µM and 0.417 µM and 0.129 µM
- TGI [11]: 1.37 µM and 5.66 µM and 1.11 µM
- GI50 [12]: 12.2 µM and > 10 µM and 12.3 µM
- TGI [12]: 26.4 µM and > 10 µM and 27 µM
- GI50 [13]: 0.267 µM and 0.698 µM and 0.611 µM
- TGI [13]: 5.22 µM and > 10 µM and 13.9 µM
- GI50 [14]: 0.197 µM and 1.71 µM and 1.63 µM
- TGI [14]: 5.77 µM and > 10 µM and 14 µM
- GI50 [15]: 14.9 µM and > 10 µM and 15.7 µM
- TGI [15]: 30.2 µM and > 10 µM and 31.4 µM
- GI50 [16]: 1.27 µM and > 10 µM and 7.49 µM
- TGI [16]: 5.37 µM and > 10 µM and 21.6 µM
- GI50 [17]: 2.09 µM and > 10 µM and 11.1 µM
- TGI [17]: 5.79 µM and > 10 µM and 23.2 µM
- GI50 [18]: 0.212 µM and 0.191 µM and 0.449 µM
- TGI [18]: 15.1 µM and > 5.49 µM and 14.9 µM
- GI50 [19]: 6.95 µM and > 10 µM and 10.6 µM
- TGI [19]: 21.7 µM and > 10 µM and 22.7 µM
- GI50 [20]: 2.64 µM and 3.84 µM and 5.83 µM
- TGI [20]: 15.6 µM and > 10 µM and 20.2 µM
- GI50 [21]: 0.051 µM and 0.105 µM and 0.12 µM
- TGI [21]: 3.35 µM and 2.62 µM and 4.53 µM
- GI50 [22]: 7.28 µM and > 4.45 µM and 8.51 µM
- TGI [22]: 19.6 µM and 9.81 µM and 33.2 µM
- GI50 [23]: 14.2 µM and > 10 µM and 15 µM
- TGI [23]: 28.7 µM and > 10 µM and 29.8 µM
- GI50 [24]: 0.0198 µM and 0.0234 µM and 0.0639 µM
- GI50 [25]: 0.506 µM and 0.477 µM and 0.908 µM
- TGI [25]: 21.2 µM and > 10 µM and 18.4 µM
- GI50 [26]: 2.34 µM and 2.68 µM and 3.65 µM
- TGI [26]: 14.7 µM and > 10 µM and 20 µM
- GI50 [27]: 1.54 µM and > 10 µM and 12.7 µM
- TGI [27]: 5.42 µM and > 10 µM and 26.8 µM
- GI50 [28]: 0.255 µM and 0.804 µM and 0.811 µM
- TGI [28]: 15.3 µM and > 10 µM and 18 µM
- GI50 [29]: 0.765 µM and 0.344 µM and 1.08 µM
- TGI [29]: 18.3 µM and > 10 µM and 3.06 µM
